In US20050130909A1 (priority 2002, published 2005):

Columns and labels:
[1] = Rat mass balance study; assay type: in vivo, Sprague-Dawley rats
Method: Mass balance studies were conducted to determine the excretion pattern of dalbavancin following a single intravenous (IV) infusion of dalbavancin in male rats.
Water and methanol cage washes were also collected.

[2] = molecular target: human albumin (Homo sapiens, UniProt P02768); experiment: Protein binding by isothermal titration microcalorimetry (ITC); details: for Calculated percent Binding to Human albumin: albumin 6×10^−4 M assumed
[3] = tested on: human α-glycoprotein; experiment: Protein binding by ITC; details: protein […]10^−5 M assumed
[4] = ESI-MS analysis of multimers in solution; details: dalbavancin 0.1 mg/ml in 8:2 water:isopropanol; teicoplanin 50 and 100 μg/mL in water
Method: Experiments were performed using an Applied Biosystem API III+ mass spectrometer equipped with a TurboIonSpray source, a Triple Quadrupole analyzer, operating in positive ion mode.
The mass spectra were obtained in electrospray positive mode on a Finnigan LCQ^Deca ion trap instrument previously tuned and calibrated in electrospray mode using Ultramark 1621, caffeine and MRFA (L-metionyl-arginyl-phenilalanyl-arginine).

[5] = tested on: N,N′-diacetyl-Lys-D-Ala-D-Ala; experiment: ITC of binding to tri-peptide cell-wall analog, with and without HSA; details: control ITC experiments with HSA
Method: Peptide concentrations were determined by weight.
Trans. R. Soc. Lond. Ser. A-Math. Phys. Eng. […] Wiley, (1998) p 103-111; and Cooper, A., Curr. Opin. Chem. Biol. (1999) 3, 557-563.

[6] = tested on: dipeptide (D-Ala-D-Ala); experiment: ITC, preliminary experiments; assay type: binding; details: absence of serum proteins
[7] = tested on: Lys-D-Ala-D-Lactate; experiment: ITC, preliminary experiments; assay type: binding; details: absence of serum proteins

human albumin, sequence (P02768 25-609): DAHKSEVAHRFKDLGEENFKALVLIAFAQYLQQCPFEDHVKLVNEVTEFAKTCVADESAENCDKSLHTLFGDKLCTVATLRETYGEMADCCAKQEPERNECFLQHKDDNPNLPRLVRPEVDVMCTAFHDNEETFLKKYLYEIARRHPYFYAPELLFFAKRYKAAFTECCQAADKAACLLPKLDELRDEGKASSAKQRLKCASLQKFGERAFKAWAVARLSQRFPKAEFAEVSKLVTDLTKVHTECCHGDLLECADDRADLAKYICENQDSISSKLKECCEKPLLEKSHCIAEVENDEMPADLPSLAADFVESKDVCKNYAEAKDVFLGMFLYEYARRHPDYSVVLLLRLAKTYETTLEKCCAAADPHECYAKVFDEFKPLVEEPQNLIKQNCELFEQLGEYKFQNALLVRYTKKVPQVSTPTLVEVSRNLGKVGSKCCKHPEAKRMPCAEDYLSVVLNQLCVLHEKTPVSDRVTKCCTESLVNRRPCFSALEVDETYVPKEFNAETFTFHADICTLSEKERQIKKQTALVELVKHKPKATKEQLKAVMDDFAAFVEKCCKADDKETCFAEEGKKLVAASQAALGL

CN[C@H]1C(=O)N[C@@H]2Cc3ccc(cc3)Oc3cc4cc(c3O[C@@H]3O[C@H](C(=O)O)[C@@H](O)[C@H](O)[C@H]3NC(=O)CCCCCCCCC(C)C)Oc3ccc(cc3Cl)[C@@H](O)[C@@H]3NC(=O)[C@H](NC(=O)[C@@H]4NC(=O)[C@@H](NC2=O)c2cc(cc(O)c2Cl)Oc2cc1ccc2O)c1ccc(O)c(c1)-c1c(O[C@H]2O[C@H](CO)[C@@H](O)[C@H](O)[C@@H]2O)cc(O)cc1[C@@H](C(=O)NCCCN(C)C)NC3=O [^3H-dalbavancin]
Dose remaining in the carcass ([1]; 70 days post dose, mass balance study): 4.5 % of the dose | Plasma t1/2 ([1]; rats, single IV 20 mg/kg): approximately 1 week

Teicoplanin [reference compound]
Calculated percent Binding to Human albumin ([2]; antibiotic 1 μM): 98.3% | Calculated percent Binding to Human albumin ([2]; antibiotic 10 μM): 98.3% | Calculated percent Binding to Human albumin ([2]; antibiotic 100 μM): 98.0% | Binding stoichiometry antibiotic:protein ([2]; binding stoichiometry modeling of ITC data): 1:1 binding | Calculated percent Binding to Human α-glycoprotein ([3]; antibiotic 1 μM): 9.6% | Calculated percent Binding to Human α-glycoprotein ([3]; antibiotic 10 μM): 9.1% | Calculated percent Binding to Human α-glycoprotein ([3]; antibiotic 100 μM): 6.0% | Multimers in solution [4]: does not show multimeric complexes in solution

CN[C@H](CC(C)C)C(=O)N[C@H]1C(=O)N[C@@H](CC(N)=O)C(=O)N[C@H]2C(=O)N[C@H]3C(=O)N[C@H](C(=O)N[C@H](C(=O)O)c4cc(O)cc(O)c4-c4cc3ccc4O)[C@H](O)c3ccc(c(Cl)c3)Oc3cc2cc(c3O[C@@H]2O[C@H](CO)[C@@H](O)[C@H](O)[C@H]2O[C@H]2C[C@](C)(N)[C@H](O)[C@H](C)O2)Oc2ccc(cc2Cl)[C@H]1O [vancomycin, reference compound]
Binding to tri-peptide in the presence of HSA (control) [5]: comparable to those seen in the absence of HSA | Binding to dipeptide (D-Ala-D-Ala) [6]: no evidence of binding | Binding to Lys-D-Ala-D-Lactate [7]: no evidence of binding
